Here are results for one molecule from ChEMBL document CHEMBL4382249, “1-Arylsulfonyl indoline-benzamides as a new antitubulin agents, with inhibition of histone deacetylase” (Eur J Med Chem, 2019).

A word on the IC50: it is the midpoint of a concentration-inhibition curve. Low values mean greater potency, high ones weaker potency. Broadly, the inhibition is the drop in the measured response relative to a control, in per cent. As a reminder, the viability is a per cent measure of how many cells are alive, often set against a control.

The source made the active and inactive calls. The calls are words filed in the database; no cut-off is given here.

Data set [1] in a line: Growth inhibition of human KB-S15 cells after 48 hrs by SRB assay. It is filed as functional. Particulars: KB-S15, 48 h. On the technique in general: Sulforhodamine B stains cellular protein and so reports cell mass.
Data set [2] can be described thus: Toxicity in NOD/SCID mouse xenografted with human BJAB cells assessed as change in body weight at 50 mg/kg, iv daily for 5 days/week measured on day 25 post first dose. The class given is organism-based. The settings on record: in vivo, 120 h.
Data set [3] addresses T1, Protein deacetylase HDAC6 (Homo sapiens) (UniProt Q9UBN7).
T1 sequence (whole entry): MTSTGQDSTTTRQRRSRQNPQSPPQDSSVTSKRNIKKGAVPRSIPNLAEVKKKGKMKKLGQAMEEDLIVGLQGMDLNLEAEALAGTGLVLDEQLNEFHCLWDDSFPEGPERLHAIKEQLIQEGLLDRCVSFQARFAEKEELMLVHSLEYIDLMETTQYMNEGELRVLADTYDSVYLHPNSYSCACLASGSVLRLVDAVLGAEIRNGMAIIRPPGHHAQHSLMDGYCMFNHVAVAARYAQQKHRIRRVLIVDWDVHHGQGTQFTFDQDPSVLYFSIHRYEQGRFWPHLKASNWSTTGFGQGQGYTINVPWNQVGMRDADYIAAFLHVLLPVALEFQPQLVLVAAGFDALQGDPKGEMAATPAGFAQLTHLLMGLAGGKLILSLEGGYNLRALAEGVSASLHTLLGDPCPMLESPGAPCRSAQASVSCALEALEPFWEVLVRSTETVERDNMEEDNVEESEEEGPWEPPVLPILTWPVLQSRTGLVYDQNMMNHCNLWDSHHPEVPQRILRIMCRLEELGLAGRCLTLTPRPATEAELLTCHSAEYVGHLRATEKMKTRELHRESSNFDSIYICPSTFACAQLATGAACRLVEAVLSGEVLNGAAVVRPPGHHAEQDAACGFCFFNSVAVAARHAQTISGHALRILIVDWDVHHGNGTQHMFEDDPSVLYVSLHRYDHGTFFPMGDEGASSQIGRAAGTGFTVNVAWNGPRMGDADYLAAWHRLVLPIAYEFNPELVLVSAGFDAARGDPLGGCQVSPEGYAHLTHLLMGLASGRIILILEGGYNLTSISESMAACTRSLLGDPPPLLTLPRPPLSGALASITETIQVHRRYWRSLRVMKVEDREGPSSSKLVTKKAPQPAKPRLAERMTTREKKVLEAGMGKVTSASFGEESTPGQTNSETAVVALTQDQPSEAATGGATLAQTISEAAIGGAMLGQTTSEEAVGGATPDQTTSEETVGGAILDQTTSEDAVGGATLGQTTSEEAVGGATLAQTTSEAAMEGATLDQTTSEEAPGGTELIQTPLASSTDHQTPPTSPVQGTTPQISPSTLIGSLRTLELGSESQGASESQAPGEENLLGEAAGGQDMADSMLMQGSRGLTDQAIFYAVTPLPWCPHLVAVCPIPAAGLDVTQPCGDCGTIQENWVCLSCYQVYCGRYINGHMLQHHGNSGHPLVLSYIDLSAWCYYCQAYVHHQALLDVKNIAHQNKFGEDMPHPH
The data set is described as follows: Inhibition of human HDAC6 in human A549 cells assessed as increase in acetylated alpha-tubulin level at 0.6 to […] after 6 hrs by Western blot analysis. It is filed as cell-based. On the technique in general: Immunoblotting shows a protein as a band on a membrane.

The target of the next data set is Tubulin (Bos taurus) (UniProt Q6B856+Q862L2+Q862F3). The settings on record: at 1 µM.
The subject of data set [4] is BJAB. The data set is described as follows: Growth inhibition of human BJAB cells after 48 hrs by MTT assay. On the technique in general: Formazan colour is commonly taken as a measure of viable cells.
In data set [5] the target is T2, Protein deacetylase HDAC6 (Homo sapiens, UniProt Q9UBN7).
T2 sequence (Q9UBN7 whole entry): T1 sequence (whole entry)
The data set is described as follows: Inhibition of human HDAC6 using RHKKAc as substrate by fluorescence assay.

In another data set the target is Histone deacetylase 9 (Homo sapiens, UniProt Q9UKV0). Nature of the data set: Inhibition of human HDAC9 using fluorogenic p53 (379-382) peptide RHKK(Ac) as substrate by fluorescence assay.
Histone deacetylase 9, sequence (Q9UKV0 whole entry): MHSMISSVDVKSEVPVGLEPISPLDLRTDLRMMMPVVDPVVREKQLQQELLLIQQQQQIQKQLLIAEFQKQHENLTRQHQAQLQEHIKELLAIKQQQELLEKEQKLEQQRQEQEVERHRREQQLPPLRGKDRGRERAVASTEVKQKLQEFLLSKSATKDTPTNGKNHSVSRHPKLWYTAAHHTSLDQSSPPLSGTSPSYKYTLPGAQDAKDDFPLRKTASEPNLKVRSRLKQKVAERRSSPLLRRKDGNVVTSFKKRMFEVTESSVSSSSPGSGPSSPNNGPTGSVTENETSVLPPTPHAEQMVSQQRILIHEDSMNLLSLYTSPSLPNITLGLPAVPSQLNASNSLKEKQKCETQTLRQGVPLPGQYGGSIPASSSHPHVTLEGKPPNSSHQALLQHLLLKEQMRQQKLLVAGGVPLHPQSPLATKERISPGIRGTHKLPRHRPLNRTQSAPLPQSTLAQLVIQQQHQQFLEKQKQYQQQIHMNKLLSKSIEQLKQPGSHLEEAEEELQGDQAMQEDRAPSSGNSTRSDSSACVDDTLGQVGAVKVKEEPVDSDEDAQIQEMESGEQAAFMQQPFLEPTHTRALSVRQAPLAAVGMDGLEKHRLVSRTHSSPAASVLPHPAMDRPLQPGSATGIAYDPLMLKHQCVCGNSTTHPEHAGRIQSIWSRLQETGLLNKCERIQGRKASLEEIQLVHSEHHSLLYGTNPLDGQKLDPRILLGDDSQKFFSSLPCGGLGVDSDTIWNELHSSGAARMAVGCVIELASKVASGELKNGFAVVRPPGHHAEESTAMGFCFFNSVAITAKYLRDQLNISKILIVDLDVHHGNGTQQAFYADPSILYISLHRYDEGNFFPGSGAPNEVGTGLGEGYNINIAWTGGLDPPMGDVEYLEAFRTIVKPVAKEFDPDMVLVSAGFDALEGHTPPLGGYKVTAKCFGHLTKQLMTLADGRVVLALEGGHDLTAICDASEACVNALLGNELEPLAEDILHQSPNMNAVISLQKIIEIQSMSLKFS
Data set [6] can be described thus: Toxicity in nude Balb/c mouse xenografted with human A549 cells assessed as change in body weight at 50 mg/kg, ip daily measured up to 18 days. The class given is organism-based. The settings on record: in vivo, 432 h.
Data set [7] relates to BJAB. The data set is described as follows: Growth inhibition of human BJAB cells assessed as cell viability at 10 nM after 48 hrs by MTT assay (reference value: 100%).
The target of another data set is T3, Histone deacetylase 8 (Homo sapiens, UniProt Q9BY41).
T3 sequence (Q9BY41 whole entry): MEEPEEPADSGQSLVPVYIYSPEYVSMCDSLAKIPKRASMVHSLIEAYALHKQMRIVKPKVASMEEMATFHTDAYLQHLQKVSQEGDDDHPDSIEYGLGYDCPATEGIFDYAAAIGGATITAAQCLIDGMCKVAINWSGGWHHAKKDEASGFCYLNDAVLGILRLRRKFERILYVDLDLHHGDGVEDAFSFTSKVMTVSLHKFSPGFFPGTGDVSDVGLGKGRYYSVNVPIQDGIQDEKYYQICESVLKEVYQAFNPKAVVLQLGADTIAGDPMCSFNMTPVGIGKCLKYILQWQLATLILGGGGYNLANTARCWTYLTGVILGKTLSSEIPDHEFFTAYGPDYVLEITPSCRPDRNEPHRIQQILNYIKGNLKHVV

Another data set relates to MKN-45. Nature of the data set: Growth inhibition of human MKN45 cells after 48 hrs by SRB assay. The class given is functional, cell-based. Particulars: MKN-45, 48 h.
The test system of data set [8] is BJAB. Nature of the data set: Growth inhibition of human BJAB cells assessed as cell viability at 80 nM after 48 hrs by MTT assay (reference value: 100%).
The nature of data set [9]: Growth inhibition of human KB-VIN10 cells after 48 hrs by SRB assay. Particulars: KB-VIN10, 48 h. It is filed as functional.
Data set [10] in a line: Growth inhibition of human KB-7d cells after 48 hrs by SRB assay. It is filed as functional. Particulars: KB7D.
The next data set has as its target Histone deacetylase 1 (Homo sapiens, UniProt Q13547). Nature of the data set: Inhibition of human HDAC1 using RHKKAc as substrate by fluorescence assay.
For data set [11], the system named is BJAB. The data set is described as follows: Growth inhibition of human BJAB cells assessed as cell viability at 20 nM after 48 hrs by MTT assay (reference value: 100%).
Another data set deals with Histone deacetylase 2 (Homo sapiens, UniProt Q92769). Nature of the data set: Inhibition of human HDAC2 using RHKKAc as substrate by fluorescence assay.
Histone deacetylase 2, sequence (Q92769 whole entry): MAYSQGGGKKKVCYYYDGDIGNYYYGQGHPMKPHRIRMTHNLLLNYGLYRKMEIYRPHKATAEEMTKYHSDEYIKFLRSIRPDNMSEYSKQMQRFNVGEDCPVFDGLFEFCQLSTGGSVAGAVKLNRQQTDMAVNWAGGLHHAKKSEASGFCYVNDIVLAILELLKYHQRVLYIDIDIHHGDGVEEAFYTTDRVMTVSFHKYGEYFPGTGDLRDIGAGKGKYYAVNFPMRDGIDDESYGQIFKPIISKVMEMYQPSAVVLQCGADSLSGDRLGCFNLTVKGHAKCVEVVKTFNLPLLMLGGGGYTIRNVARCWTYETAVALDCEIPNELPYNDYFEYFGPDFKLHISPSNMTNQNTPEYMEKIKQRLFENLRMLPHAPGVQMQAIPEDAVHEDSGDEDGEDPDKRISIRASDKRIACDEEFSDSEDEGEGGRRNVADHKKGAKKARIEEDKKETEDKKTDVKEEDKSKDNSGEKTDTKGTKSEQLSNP
The subject of the next data set is A549. Nature of the data set: Antitumor activity against human A549 cells xenografted in Balb/c nude mouse assessed as tumor growth inhibition at 50 mg/kg, ip daily measured up to 18 days relative to control. The class given is functional. The settings on record: 432 h, read-out: TGI.
A further data set addresses Histone deacetylase 3 (Homo sapiens, UniProt O15379).
Data set [12] has as its system BJAB. Nature of the data set: Antitumor activity against human BJAB cells xenografted in NOD/SCID mouse assessed as tumor growth inhibition at 50 mg/kg, iv daily for 5 days/week measured on day 25 post first dose. It is filed as functional, organism-based.

Histone deacetylase 1, sequence (Q13547 whole entry): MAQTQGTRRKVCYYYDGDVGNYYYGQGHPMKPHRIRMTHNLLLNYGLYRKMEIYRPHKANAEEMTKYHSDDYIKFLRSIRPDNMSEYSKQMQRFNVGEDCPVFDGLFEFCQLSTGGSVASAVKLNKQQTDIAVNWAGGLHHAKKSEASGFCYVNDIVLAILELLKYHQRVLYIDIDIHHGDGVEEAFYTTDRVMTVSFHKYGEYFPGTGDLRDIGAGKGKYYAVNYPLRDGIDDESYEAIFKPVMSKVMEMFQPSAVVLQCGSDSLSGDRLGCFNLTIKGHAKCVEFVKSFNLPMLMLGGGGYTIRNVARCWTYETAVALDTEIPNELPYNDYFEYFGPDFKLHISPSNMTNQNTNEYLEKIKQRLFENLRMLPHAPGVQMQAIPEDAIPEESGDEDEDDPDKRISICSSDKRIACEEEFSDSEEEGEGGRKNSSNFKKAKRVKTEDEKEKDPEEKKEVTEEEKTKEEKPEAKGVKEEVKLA
Histone deacetylase 3, sequence (O15379 whole entry): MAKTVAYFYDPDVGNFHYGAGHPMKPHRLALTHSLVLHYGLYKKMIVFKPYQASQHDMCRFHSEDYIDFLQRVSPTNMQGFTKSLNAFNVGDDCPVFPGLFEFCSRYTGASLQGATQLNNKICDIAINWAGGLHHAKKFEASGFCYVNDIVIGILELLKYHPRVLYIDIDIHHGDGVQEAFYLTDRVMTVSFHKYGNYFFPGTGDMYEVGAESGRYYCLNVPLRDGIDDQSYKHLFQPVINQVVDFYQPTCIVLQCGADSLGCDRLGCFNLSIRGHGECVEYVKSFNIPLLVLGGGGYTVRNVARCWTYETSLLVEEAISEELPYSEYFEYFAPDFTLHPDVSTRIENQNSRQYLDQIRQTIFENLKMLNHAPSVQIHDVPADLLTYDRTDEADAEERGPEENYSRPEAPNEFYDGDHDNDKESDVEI

On to `COc1ccc(S(=O)(=O)N2CCc3cccc(NCc4ccc(C(=O)Nc5ccccc5N)cc4)c32)cc1`, for which the IC50 in [1] was 43.9 nM; in the data set with BJAB [4] it was 40 nM; in data set [5], 314 nM; at Histone deacetylase 9, “Not Active”; at Histone deacetylase 8, “Not Active”; in the data set with MKN-45, 63 nM. In addition, the IC50 in data set [9] is 64.7 nM; in [10] it was 46.6 nM; against Histone deacetylase 1, 221 nM; at Histone deacetylase 2, 662 nM; on Histone deacetylase 3, “Not Active”. For the same molecule, the Activity result in [2] and in [6] was “Non-Toxic” in each case. The inhibition entry in [3] was “Active”. The same molecule registered an inhibition at Tubulin (Bos taurus) of 69.9%. Further, the viability at 0.01 µM with BJAB [7] stood at 69%. Besides, the viability at 0.08 µM in the data set on BJAB [8] was 22%. Besides, in the data set on BJAB [11], the viability at 0.02 µM worked out at 70%. Besides, the inhibition in vivo at 50 mg/kg in the data set with A549 worked out at 62.9%. For the same molecule, the TGI result with BJAB [12] is “Active”.
